Laboratory results taken from US9676760B2, “Fused heterocyclic compounds as ion channel modulators” (Gilead Sciences, Inc., priority 2011, dated 2017).

Molecular target: wild-type human cardiac sodium channel, hNav1.5 (Homo sapiens, UniProt Q14524)
Test: Late INa screening assay (QPatch whole cell patch clamp, HEK293)
Format: cell-based
Conditions: for inhibition at 1 µM: HEK293, percent block of late INa, compound at 1 μM, 10 μM Tefluthrin, read-out: Late INa 1 μM
Procedure: The late sodium current (Late INa) and peak sodium current (Peak INa) assays are performed on an automated electrophysiology platform, QPatch 16× (Sophion Bioscience, Copenhagen, Denmark), which uses the whole cell patch clamp technique to measure currents through the cell membrane of up to 16 cells at a time. The assay uses an HEK293 (human embryonic kidney) cell line heterologously expressing the wild-type human cardiac sodium channel, hNav1.5, purchased from Millipore (Billerica, Mass.). No beta subunits were coexpressed with the Na channel alpha subunit. Cells are maintained with standard tissue culture procedures and stable channel expression is maintained with 400 μg/mL Geneticin in the culture medium. Cells isolated for use on QPatch are incubated for 5 minutes in Detachin 1×(Genlantis, San Diego, USA) at 37° C. to ensure that 80-90% of the cells are single and not part of a cell cluster. Experiments are carried out at 23-25° C.
For both the Late INa and Peak INa assays, series resistance compensation is set to 100% and series resistance and whole-cell compensation are performed automatically. Currents are digitized at 25 kHz and low-pass filtered at 12 kHz and 10 kHz for the late and peak INa assays, respectively. Currents through open sodium channels are automatically recorded and stored in the Sophion Bioscience Oracle database (Sophion Bioscience, Copenhagen, Denmark). Analysis is performed using QPatch Assay and database software and data are compiled in Excel.
Compound stocks are routinely made by the Gilead Sample Bank in plastic vials to 10 mM in dimethyl sulfoxide (DMSO). In some cases, when compounds are not soluble in DMSO, they are made in 100% ethanol. Stocks are sonicated as necessary. The extracellular solution for screening Late INa is composed of: 140 mM NaCl, 4 mM KCl, 1.8 mM CaCl2, 0.75 mM MgCl2 and 5 mM HEPES with pH adjusted to 7.4 using NaOH. The intracellular solution used to perfuse the inside of the cells for both the Late INa and Peak INa assays contains: 120 mM CsF, 20 mM CsCl, 5 mM EGTA, 5 mM HEPES and pH adjusted to 7.4 with CsOH. Compounds are diluted in extracellular solution to 1 μM in glass vials and then transferred to glass well plates before robotic addition to the cells. The 0 mM Na extracellular solution (0Na-ECF) used at the end of each experiment for the Late INa and Peak INa assays to measure baseline current contains: 140 mM N-methyl-D-glucamine; 4 mM KCl; 1.8 mM CaCl2; 0.75 mM MgCl2; 5 mM HEPES and pH was adjusted to 7.4 with HCl.
For the Late INa assay, sodium channels are activated every 10 seconds (0.1 Hz) by depolarizing the cell membrane to −20 mV for 250 milliseconds (ms) from a holding potential of −120 mV. In response to a −20 mV voltage step, typical hNav1.5 sodium currents activate rapidly to a peak negative current and then inactivate nearly completely within 3-4 ms.
Compounds were tested to determine their activity in blocking the late sodium current. Late INa was generated by adding 10 μM Tefluthrin (pyrethroid) to the extracellular solution while recording Na currents. […] ATX-II and tefluthrin occupy distinct, non-overlapping binding sites and modify Na^+ channel function differently to increase late INa. […] After establishing the whole cell recording configuration, late INa activator is added to each well 4 times over a 16-17 minute period so that the late component of the Na current reaches a stable value.
Results are reported as percent block of late INa.

wild-type human cardiac sodium channel, hNav1.5, sequence (Q14524 whole entry): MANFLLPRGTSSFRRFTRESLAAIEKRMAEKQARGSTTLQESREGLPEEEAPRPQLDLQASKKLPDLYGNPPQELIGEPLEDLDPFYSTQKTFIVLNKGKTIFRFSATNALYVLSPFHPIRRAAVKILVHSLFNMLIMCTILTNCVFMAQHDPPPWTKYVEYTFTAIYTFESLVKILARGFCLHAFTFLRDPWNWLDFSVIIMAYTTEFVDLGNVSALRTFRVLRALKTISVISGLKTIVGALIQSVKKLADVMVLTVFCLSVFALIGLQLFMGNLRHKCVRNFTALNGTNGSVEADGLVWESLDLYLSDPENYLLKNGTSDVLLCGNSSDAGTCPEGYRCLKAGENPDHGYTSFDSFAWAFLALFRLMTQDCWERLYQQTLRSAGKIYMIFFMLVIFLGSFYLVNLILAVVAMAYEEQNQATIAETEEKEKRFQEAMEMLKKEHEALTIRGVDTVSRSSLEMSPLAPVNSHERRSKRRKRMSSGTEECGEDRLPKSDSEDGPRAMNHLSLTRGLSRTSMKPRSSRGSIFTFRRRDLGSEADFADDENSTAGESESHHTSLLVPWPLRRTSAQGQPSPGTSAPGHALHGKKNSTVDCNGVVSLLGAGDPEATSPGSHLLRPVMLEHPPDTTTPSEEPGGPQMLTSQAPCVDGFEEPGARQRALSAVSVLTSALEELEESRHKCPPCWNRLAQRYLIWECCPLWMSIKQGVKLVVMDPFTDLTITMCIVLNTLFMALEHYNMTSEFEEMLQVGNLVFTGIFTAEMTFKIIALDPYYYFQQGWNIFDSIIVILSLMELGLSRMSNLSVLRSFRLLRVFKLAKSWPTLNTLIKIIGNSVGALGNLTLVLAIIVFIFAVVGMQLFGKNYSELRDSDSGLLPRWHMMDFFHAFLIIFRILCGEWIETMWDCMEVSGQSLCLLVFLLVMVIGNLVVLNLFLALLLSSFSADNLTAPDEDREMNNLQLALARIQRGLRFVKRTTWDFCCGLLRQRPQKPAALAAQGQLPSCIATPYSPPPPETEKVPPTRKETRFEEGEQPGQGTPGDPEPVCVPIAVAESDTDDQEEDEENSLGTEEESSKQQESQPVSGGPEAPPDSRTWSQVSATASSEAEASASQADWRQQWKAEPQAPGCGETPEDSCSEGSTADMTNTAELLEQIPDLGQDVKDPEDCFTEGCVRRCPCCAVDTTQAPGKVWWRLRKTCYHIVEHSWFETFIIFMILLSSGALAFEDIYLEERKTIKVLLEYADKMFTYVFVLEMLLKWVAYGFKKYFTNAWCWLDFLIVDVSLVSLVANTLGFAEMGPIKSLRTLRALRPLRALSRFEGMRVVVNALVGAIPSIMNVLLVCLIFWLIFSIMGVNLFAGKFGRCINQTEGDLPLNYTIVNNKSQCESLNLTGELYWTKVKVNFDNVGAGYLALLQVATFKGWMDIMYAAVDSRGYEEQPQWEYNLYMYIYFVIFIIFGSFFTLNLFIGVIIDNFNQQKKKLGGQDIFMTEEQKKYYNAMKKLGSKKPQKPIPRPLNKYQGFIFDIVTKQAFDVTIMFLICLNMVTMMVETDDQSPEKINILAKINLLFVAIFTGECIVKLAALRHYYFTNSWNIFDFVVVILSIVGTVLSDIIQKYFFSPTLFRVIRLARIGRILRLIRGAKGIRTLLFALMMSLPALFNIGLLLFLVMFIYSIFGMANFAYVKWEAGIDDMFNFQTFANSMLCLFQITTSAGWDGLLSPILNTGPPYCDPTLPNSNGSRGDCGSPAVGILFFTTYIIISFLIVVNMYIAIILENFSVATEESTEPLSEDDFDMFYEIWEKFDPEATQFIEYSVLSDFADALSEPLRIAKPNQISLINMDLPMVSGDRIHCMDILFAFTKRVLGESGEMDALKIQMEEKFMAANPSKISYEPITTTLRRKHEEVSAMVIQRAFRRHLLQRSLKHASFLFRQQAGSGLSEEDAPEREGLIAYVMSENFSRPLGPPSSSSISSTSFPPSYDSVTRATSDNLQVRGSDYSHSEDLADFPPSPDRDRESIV

SMILES: O=C1c2cc(-c3ccc(C(F)(F)F)cc3F)ccc2OCCN1Cc1ncccn1 [Compound 11-105]
- inhibited (or reduced) the late sodium current (10 μM Tefluthrin activating late INa): 45%

SMILES: CC(C)(C)C1CC=C(c2ccc3c(c2)C(=O)N(Cc2ncccn2)CCO3)CC1 (stereo not shown) [Compound V-1, 7-(4-tert-butylcyclohex-1-enyl)-4-(pyrimidin-2-ylmethyl)-3,4-dihydrobenzo[f][1,4]oxazepin-5(2H)-one]
- inhibition at 1 µM: 24%

SMILES: O=C1c2cc(C3=CCCCC3)ccc2OCCN1Cc1ncccn1 [Compound V-3, 7-cyclohexenyl-4-(pyrimidin-2-ylmethyl)-3,4-dihydrobenzo[f][1,4]oxazepin-5(2H)-one]
- inhibition at 1 µM: 23%

SMILES: O=C1c2cc(-c3ccc(C(F)(F)F)cc3)ccc2-n2ccnc2CN1Cc1ccccc1 [Compound X-12, 5-benzyl-8-(4-(trifluoromethyl)phenyl)-4H-benzo[f]imidazo[1,2-a][1,4]diazepin-6(5H)-one]
- inhibition at 1 µM: 26%

SMILES: CC1(CN2CCOc3ccc(-c4ccc(OC(F)(F)F)cc4)cc3C2=O)COC1 [II-1, 4-((3-methyloxetan-3-yl)methyl)-7-(4-(trifluoromethoxy)phenyl)-3,4-dihydrobenzo[f][1,4]oxazepin-5(2H)-one]
- inhibition at 1 µM: 25%

SMILES: O=C1c2cc(-c3ccc(OC(F)(F)F)cc3)ccc2OCCN1CCN1CCCC1 [II-3, 4-(2-(pyrrolidin-1-yl)ethyl)-7-(4-(trifluoromethoxy)phenyl)-3,4-dihydrobenzo[f][1,4]oxazepin-5(2H)-one]
- inhibition at 1 µM: 15%

SMILES: O=C1c2cc(-c3ccc(OC(F)(F)F)cc3)ccc2OCCN1Cc1nnc(C2CCC2)o1 [II-4, 4-((5-cyclobutyl-1,3,4-oxadiazol-2-yl)methyl)-7-(4-(trifluoromethoxy)phenyl)-3,4-dihydrobenzo[f][1,4]oxazepin-5(2H)-one]
- inhibition at 1 µM: 30%

SMILES: O=C1c2cc(-c3ccc(OC(F)(F)F)cc3)ccc2OCCN1Cc1ccc2c(c1)OCCO2 [II-5, 4-((2,3-dihydrobenzo[b][1,4]dioxin-6-yl)methyl)-7-(4-(trifluoromethoxy)phenyl)-3,4-dihydrobenzo[f][1,4]oxazepin-5(2H)-one]
- inhibition at 1 µM: 26%

SMILES: O=C1c2cc(-c3ccc(OC(F)(F)F)cc3)ccc2OCCN1CC(F)F [II-6, 4-(2,2-difluoroethyl)-7-(4-(trifluoromethoxy)phenyl)-3,4-dihydrobenzo[f][1,4]oxazepin-5(2H)-one]
- inhibition at 1 µM: 16%

SMILES: O=C1c2cc(-c3ccc(C(F)(F)F)cc3)ccc2OC[C@H]2CN(Cc3ncccn3)CCN12 [II-8, (R)-2-(pyrimidin-2-ylmethyl)-8-(4-(trifluoromethyl)phenyl)-3,4,12,12a-tetrahydro-1H-benzo[f]pyrazino[2,1-c][1,4]oxazepin-6(2H)-one]
- inhibition at 1 µM: 21%

SMILES: COCCN1CCOc2ccc(-c3ccc(OC(F)(F)F)cc3)cc2C1=O [II-11, 4-(2-methoxyethyl)-7-(4-(trifluoromethoxy)phenyl)-3,4-dihydrobenzo[f][1,4]oxazepin-5(2H)-one]
- inhibition at 1 µM: 23%

SMILES: C[C@H]1COc2ccc(-c3ccc(C(F)(F)F)cc3)cc2C(=O)N1Cc1ncccn1 [II-12, (S)-3-methyl-4-(pyrimidin-2-ylmethyl)-7-(4-(trifluoromethyl)phenyl)-3,4-dihydrobenzo[f][1,4]oxazepin-5(2H)-one]
- inhibition at 1 µM: 21%

SMILES: C[C@@H]1COc2ccc(-c3ccc(C(F)(F)F)cc3)cc2C(=O)N1Cc1ncccn1 [II-13, (R)-3-methyl-4-(pyrimidin-2-ylmethyl)-7-(4-(trifluoromethyl)phenyl)-3,4-dihydrobenzo[f][1,4]oxazepin-5(2H)-one]
- inhibition at 1 µM: 18%

SMILES: O=C1c2cc(-c3ccc(OC(F)(F)F)cc3)ccc2OCCN1Cc1ccc(C(F)(F)F)nc1 [II-16, 7-(4-(trifluoromethoxy)phenyl)-4-((6-(trifluoromethyl)pyridin-3-yl)methyl)-3,4-dihydrobenzo[f][1,4]oxazepin-5(2H)-one]
- inhibition at 1 µM: 19%

SMILES: C[C@@H]1COc2ccc(-c3ccc(C(F)(F)F)cc3)cc2C(=O)N1 [II-19, (R)-3-methyl-7-(4-(trifluoromethyl)phenyl)-3,4-dihydrobenzo[f][1,4]oxazepin-5(2H)-one]
- inhibition at 1 µM: 21%

SMILES: N[C@@H]1C[C@H]2COc3ccc(-c4ccc(C(F)(F)F)cc4)cc3C(=O)N2C1 [II-21, (2R,11aS)-2-amino-7-(4-(trifluoromethyl)phenyl)-2,3,11,11a-tetrahydrobenzo[f]pyrrolo[2,1-c][1,4]oxazepin-5(1H)-one]
- inhibition at 1 µM: 18%

SMILES: CCN1CCN2C(=O)c3cc(-c4ccc(C(F)(F)F)cc4)ccc3OC[C@H]2C1 [II-23, (R)-2-ethyl-8-(4-(trifluoromethyl)phenyl)-3,4,12,12a-tetrahydro-1H-benzo[f]pyrazino[2,1-c][1,4]oxazepin-6(2H)-one]
- inhibition at 1 µM: 25%

SMILES: O=C1c2cc(-c3ccc(C(F)(F)F)cc3)ccc2OC[C@@H]2CN(CC(F)F)CCN12 [II-24, (S)-2-(2,2-difluoroethyl)-8-(4-(trifluoromethyl)phenyl)-3,4,12,12a-tetrahydro-1H-benzo[f]pyrazino[2,1-c][1,4]oxazepin-6(2H)-one]
- inhibition at 1 µM: 23%

SMILES: CCN1CCN2C(=O)c3cc(-c4ccc(C(F)(F)F)cc4)ccc3OC[C@@H]2C1 [II-25, (S)-2-ethyl-8-(4-(trifluoromethyl)phenyl)-3,4,12,12a-tetrahydro-1H-benzo[f]pyrazino[2,1-c][1,4]oxazepin-6(2H)-one]
- inhibition at 1 µM: 25%

SMILES: CC1(C)COC(C)(CCN2CCOc3ccc(-c4ccc(OC(F)(F)F)cc4)cc3C2=O)OC1 [II-35, 7-(4-(trifluoromethoxy)phenyl)-4-(2-(2,5,5-trimethyl-1,3-dioxan-2-yl)ethyl)-3,4-dihydrobenzo[f][1,4]oxazepin-5(2H)-one]
- inhibition at 1 µM: 25%

SMILES: CC(C)(C)OC(=O)N[C@@H]1C[C@@H]2COc3ccc(-c4ccc(C(F)(F)F)cc4)cc3C(=O)N2C1 [II-39, tert-butyl (2R,11aR)-5-oxo-7-(4-(trifluoromethyl)phenyl)-1,2,3,5,11,11a-hexahydrobenzo[f]pyrrolo[2,1-c][1,4]oxazepin-2-ylcarbamate]
- inhibition at 1 µM: 16%

SMILES: O=C1c2cc(-c3ccc(OC(F)(F)F)cc3)ccc2OCCN1Cc1cc(-c2ccccn2)on1 [II-41, 4-((5-(pyridin-2-yl)isoxazol-3-yl)methyl)-7-(4-(trifluoromethoxy)phenyl)-3,4-dihydrobenzo[f][1,4]oxazepin-5(2H)-one]
- inhibition at 1 µM: 17%

SMILES: CCOC(=O)c1cccc(CN2CCOc3ccc(-c4ccc(OC(F)(F)F)cc4)cc3C2=O)c1 [II-43, ethyl 3-((5-oxo-7-(4-(trifluoromethoxy)phenyl)-2,3-dihydrobenzo[f][1,4]oxazepin-4(5H)-yl)methyl)benzoate]
- inhibition at 1 µM: 23%

SMILES: O=C1c2cc(-c3ccc(OC(F)(F)F)cc3)ccc2OCCN1CCc1ncccn1 [II-44, 4-(2-(pyrimidin-2-yl)ethyl)-7-(4-(trifluoromethoxy)phenyl)-3,4-dihydrobenzo[f][1,4]oxazepin-5(2H)-one]
- inhibition at 1 µM: 39%

SMILES: O=C1c2cc(-c3ccc(OC(F)(F)F)cc3)ccc2OCCN1Cc1ccc(F)c(F)c1 [II-45, 4-(3,4-difluorobenzyl)-7-(4-(trifluoromethoxy)phenyl)-3,4-dihydrobenzo[f][1,4]oxazepin-5(2H)-one]
- inhibition at 1 µM: 27%

SMILES: N[C@H]1C[C@H]2COc3ccc(-c4ccc(C(F)(F)F)cc4)cc3C(=O)N2C1 [II-51, (2S,11aS)-2-amino-7-(4-(trifluoromethyl)phenyl)-2,3,11,11a-tetrahydrobenzo[f]pyrrolo[2,1-c][1,4]oxazepin-5(1H)-one]
- inhibition at 1 µM: 20%

SMILES: O=C1c2cc(-c3ccc(C(F)(F)F)cc3)ccc2OC[C@H]2CCCN12 [II-59, (R)-7-(4-(trifluoromethyl)phenyl)-2,3,11,11a-tetrahydrobenzo[f]pyrrolo[2,1-c][1,4]oxazepin-5(1H)-one]
- inhibition at 1 µM: 15%

SMILES: O=C1c2cc(-c3ccc(OC(F)(F)F)cc3)ccc2OCCN1Cc1ncc(Cl)cn1 [II-65, 4-((5-chloropyrimidin-2-yl)methyl)-7-(4-(trifluoromethoxy)phenyl)-3,4-dihydrobenzo[f][1,4]oxazepin-5(2H)-one]
- inhibition at 1 µM: 19%
